Reference: patent publication US5352680A, “Delta opioid receptor antagonists to block opioid agonist tolerance and dependence” (priority 1992, dated 1994)
Where two headings read alike, the source gives them in different places.

Legend:
[1] = test system: development of morphine tolerance in mice treated chronically with morphine; type: in vivo, mice (male Swiss-Webster); details: for increase of the ED50 of morphine sulfate vs control animals: antagonist together with morphine pellets; for effect on development of tolerance: with morphine pellets
Procedure: (§1) Male Swiss-Webster mice (BioLab, White Bear Lake, Minn.) weighing 20 to 25 g were used. The mice were rendered tolerant to and dependent on morphine by s.c. implantation of one morphine pellet (75 mg free base)/mouse for 3 days according to the procedure of E. L. Way et al., J. Pharmacol. Exp. Ther., 167, 1 (1969). Control animals were implanted with placebo pellets. Mice were anesthetized lightly with methoxyflurane during the implantation process. […] Chem. Pathol. Pharmacol., 16, 721 (1977).
At least 30 mice (10/group) and three to four dose levels were used to determine each ED50 value.
The ED50 values of morphine and their 95% CL were determined by the parallel line assay of D. J. Finney, Statistical Methods in Biological Assay, Hafner Pub. Co., N.Y. (2d ed. 1969) with the aid of a computer program which has the capability to analyze at the same time 12 lines (dose-response curves) and 6 points (dose levels) per line with log and probit transformations and 35 repetitions per point.
(§2) Mice were implanted with a single placebo (control) or morphine pellet (75 mg free base) for 3 days. NTI (10 pmol/mouse) was administered i.c.v. 90 min before and 24 and 48 hr after the morphine pellet implantation. 5'-NTII (10 nmol/mouse) was administered 24 hr before, at the same time as and 24 and 48 hr after the morphine pellet implantation.

[2] = test system: development of physical dependence in mice treated chronically with morphine; assay: Naloxone-induced withdrawal jumping: physical dependence, mice treated chronically with morphine; type: in vivo, mice (male Swiss-Webster); details: with morphine pellet
Procedure: as §1, §2

[3] = biological target: T1, delta opioid receptors (Mus musculus, UniProt P32300); assay: Antagonism of delta opioid receptor agonists (DSLET) in vivo; design: species or system mice
T1 construct: from tissue; host or cells: living mouse, intracerebroventricular dosing (endogenous receptor)
T1 sequence (P32300 whole entry): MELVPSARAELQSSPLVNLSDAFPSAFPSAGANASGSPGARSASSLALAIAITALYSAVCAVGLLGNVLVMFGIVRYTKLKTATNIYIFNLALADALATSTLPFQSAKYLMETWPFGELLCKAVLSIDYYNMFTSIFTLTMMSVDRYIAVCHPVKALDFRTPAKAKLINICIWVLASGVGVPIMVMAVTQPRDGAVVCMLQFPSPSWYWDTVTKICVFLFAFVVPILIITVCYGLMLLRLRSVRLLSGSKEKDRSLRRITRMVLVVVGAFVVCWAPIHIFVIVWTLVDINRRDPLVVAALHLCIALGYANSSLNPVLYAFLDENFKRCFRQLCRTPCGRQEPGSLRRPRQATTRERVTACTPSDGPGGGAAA

[4] = test system: mu opioid receptors; assay: Effect on antinociceptive activity of the mu agonist DAMGO; type: in vivo, mice (male Swiss-Webster); details: NTI 10 pmol/mouse, once or twice; 5'-NTII 10 nmol/mouse 24 hr before DAMGO
Procedure: (§3) NTI (10 pmol/mouse) was administered 100 min before the i.c.v. injection of DAMGO and 20 min later, at the peak effect of DAMGO, the antinociceptive activity of the peptide was assessed. In another group of mice, NTI (10 pmol/mouse) was administered twice, once at 100 min before and again at the same time as the i.c.v. injection of DAMGO. 5'-NTII (10 nmol/mouse) was administered 24 hr before being tested with DAMGO.

[5] = test system: mu opioid receptor; assay: Antagonism of mu opioid receptor agonists; type: in vivo; details: 10 nmol/mouse i.c.v., 24 hours
Procedure: as §3

[6] = test system: kappa opioid receptor; assay: Antagonism of kappa opioid receptor agonists; type: in vivo; details: 10 nmol/mouse i.c.v., 24 hours
[7] = test system: antinociceptive activity; assay: Antinociceptive activity of the antagonist itself; type: in vivo, mice; details: for antinociceptive activity: mouse, in vivo
[8] = biological target: T1, delta opioid receptors; details: previously reported; cited from earlier work
[9] = test system: mu opioid receptor; details: shown previously; cited from earlier work
[10] = test system: kappa opioid receptor; details: shown previously; cited from earlier work
[11] = test system: delta opioid receptors; details: shown previously; cited from earlier work
[12] = test system: development of morphine tolerance in mice treated acutely with morphine; type: in vivo, mice (male Swiss-Webster); details: NTI 10 pmol/mouse i.c.v.; morphine sulfate 100 mg/kg s.c.
[13] = test system: development of physical dependence in mice treated acutely with morphine; type: in vivo, mice (male Swiss-Webster)
[14] = test system: delta opioid receptor; assay: Delta antagonist potency/selectivity comparison (one assay)
[15] = test system: mu opioid receptor; details: rats; cited from earlier work
[16] = test system: mu opioid receptor; details: monkeys; cited from earlier work
[17] = test system: mu opioid receptor; details: dose used by DeLander et al.; cited from earlier work

| SMILES | increase of the ED50 of morphine sulfate vs control animals [1] | effect on development of tolerance [1] | effect on development of physical dependence [2] | effect on the antinociceptive activity of DAMGO [4] | antinociceptive activity [7] | effect on activity of mu opioid receptor agonists [9] | effect on activity of kappa opioid receptor agonists [10] | antagonism of delta opioid receptor agonists [11] | further results |
| --- | --- | --- | --- | --- | --- | --- | --- | --- | --- |
| Oc1ccc2c3c1O[C@H]1c4[nH]c5ccc(N=C=S)cc5c4C[C@@]4(O)[C@@H](C2)N(CC2CC2)CC[C@]314 [5'-NTII, naltrindole 5'-isothiocyanate] | 3 fold | the development of tolerance was suppressed substantially | appeared to block it completely | neither NTI nor 5'-NTII, at the dosages and injection protocol used, altered the anti-nociceptive activity of DAMGO | without any antinociceptive activity | minimal or no effect | minimal or no effect | highly effective antagonists against the activity of delta opioid receptor agonists | selectivity for delta opioid receptors ([3]; 10 nmol/mouse i.c.v.): high selectivity for delta opioid receptors; increase of ED50 of DSLET ([3]; 24 hours after 10 nmol/mouse i.c.v.): 50 fold; effect on ED50s of mu opioid receptor agonists [5]: without affecting the ED50 s of mu or kappa opioid receptor agonists; effect on ED50s of kappa opioid receptor agonists [6]: without affecting the ED50 s of mu or kappa opioid receptor agonists; duration of action against delta agonists [8]: more than 48 hr |
| Oc1ccc2c3c1O[C@H]1c4[nH]c5ccccc5c4C[C@@]4(O)[C@@H](C2)N(CC2CC2)CC[C@]314 [NTI, 17-(cyclopropylmethyl)-6,7-dehydro-3,14β-dihydroxy-4,5α-epoxy-6,7-2',3'-indolmorphinan] | 2 fold | the development of tolerance was suppressed substantially | suppressed the development of dependence substantially | neither NTI nor 5'-NTII, at the dosages and injection protocol used, altered the anti-nociceptive activity of DAMGO | possesses antinociceptive activity | minimal or no effect | minimal or no effect | highly effective antagonists against the activity of delta opioid receptor agonists | effect on development of acute tolerance [12]: completely prevented the development of acute tolerance; times more naloxone required to precipitate withdrawal jumping ([13]; pretreated twice with NTI before inducing dependence): 45 times; times more naloxone required to precipitate withdrawal jumping ([13]; single dose of NTI 90 min before or at same time as 100 mg/kg morphine sulfate): about 10 times; duration of antagonist activity against delta opioid receptor agonists ([3]; NTI, b221: against the antinociceptive effect of DSLET): 18 to 24 h; maximum dose with selective antagonism at delta opioid receptors without detection of antinociceptive activity ([7]; i.c.v.): 10 pmol/mouse; potency relative to ICI 174864 ([14]; vs peptide delta antagonist ICI 174864): at least 500 times; selectivity relative to M8008 ([14]; vs structurally unrelated opiate M8008): more selective than the structurally unrelated opiate M8008 |
| COC(=O)/C=C/C(=O)N[C@@H]1CC[C@@]2(O)[C@H]3Cc4ccc(O)c5c4[C@@]2(CCN3CC2CC2)[C@H]1O5 [β-FNA, β-funaltrexamine] | – | – | – | – | – | – | – | – | effect on development of morphine tolerance and dependence [15]: inhibit the development of morphine tolerance and dependence in rats; withdrawal signs [16]: induce long-lasting withdrawal signs in monkeys; effect on morphine-induced antinociception [17]: significantly inhibited morphine-induced antinociception |
